Experiments:
rat [1] = settings: Subchronic oral toxicity in rodents, fischer, Feed, dose end: 13 week, group: systemic, systemic / in life observation / body weight / body weight gain
rat [2] = settings: Carcinogenicity, fischer, Oral, Feed, dose end: 103 week, group: systemic
mouse [3] = settings: Carcinogenicity; b6c3f1; Oral; Feed; dose end: 103 week; group: systemic; systemic / pathology microscopic / kidney / vacuolization
mouse [4] = settings: Subchronic oral toxicity in rodents, b6c3f1, Feed, dose end: 13 week, group: systemic, systemic / in life observation / body weight / body weight gain
rat [5] = settings: Subchronic oral toxicity in rodents, wistar, Feed, dose end: 13 week, group: systemic
rat [6] = settings: Prenatal developmental toxicity study, other, Oral, Gavage/Intubation, dose end: 15 GD
rat [7] = settings: Subchronic dermal toxicity, sprague dawley, Topical, dose end: 91 day, group: systemic, systemic / in life observation / clinical signs / erythema + systemic / in life observation / clinical signs / scabbing + systemic / in life…
rat [8] = settings: Prenatal developmental toxicity study, sprague dawley, Oral, Gavage/Intubation, dose end: 15 GD
[9] = systemic / in life observation / body weight / body weight gain + systemic / pathology microscopic / eye / cataract + systemic / pathology …
[10] = systemic / in life observation / clinical signs / lack of coordination + systemic / in life observation / clinical signs / voluntary muscle …
[11] = group: developmental, developmental / developmental malformation / bone / ossification sites + developmental / developmental malformation / bone / full …
[12] = group: maternal, systemic / in life observation / body weight / body weight + systemic / in life observation / food consumption / food consumption + systemic…
[13] = group: developmental, systemic / in life observation / body weight / fetal weight
[14] = group: maternal, systemic / in life observation / body weight / body weight
[15] = group: maternal, systemic / in life observation / body weight / body weight + systemic / in life observation / clinical signs / body surface staining + …

OC[C@@H](O)[C@@H](O)[C@H](O)[C@H](O)CO [D-Mannitol]
LEL (rat [1]): 2500 mg/kg/day
LOAEL (rat [1]): 2500 mg/kg/day
NEL (rat [1]): 1250 mg/kg/day
NOAEL (rat [1]): 1250 mg/kg/day
LOAEL (rat [2]; systemic / in life observation / body weight / body weight gain): 2500 mg/kg/day
LEL (rat [2]; [9]): 1250 mg/kg/day
NEL (rat [2]; [9]): < 1250 mg/kg/day
NOAEL (rat [2]; [9]): 1250 mg/kg/day
LEL (mouse [3]): 3750 mg/kg/day
LOAEL (mouse [3]): 3750 mg/kg/day
NEL (mouse [3]): < 3750 mg/kg/day
NOAEL (mouse [3]): < 3750 mg/kg/day
LEL (mouse [4]): > 7500 mg/kg/day
LOAEL (mouse [4]): > 7500 mg/kg/day
NEL (mouse [4]): ≥ 7500 mg/kg/day
NOAEL (mouse [4]): ≥ 7500 mg/kg/day

CC1(C)[C@H](C(=O)O[C@H](C#N)c2cccc(Oc3ccccc3)c2)[C@@H]1/C=C(\Cl)C(F)(F)F [gamma-Cyhalothrin]
LOAEL (rat [5]; [10]): 6.6 mg/kg/day
NEL (rat [5]; [10]): 0.7 mg/kg/day
NOAEL (rat [5]; [10]): 3.4 mg/kg/day
LEL (rat [5]; systemic / organ weight / liver / relative to body weight): 3.4 mg/kg/day

Cc1cc(C)n(CO)n1 [(3,5-Dimethyl-1H-pyrazol-1-yl)methanol]
LEL (rat [6]; [11]): 150 mg/kg/day
LOAEL (rat [6]; [11]): 150 mg/kg/day
NEL (rat [6]; [11]): 75 mg/kg/day
NOAEL (rat [6]; [11]): 75 mg/kg/day
LOAEL (rat [6]; group: maternal, systemic / in life observation / body weight / body weight + systemic / in life observation / food consumption / food consumption): 150 mg/kg/day
LEL (rat [6]; [12]): 150 mg/kg/day
NEL (rat [6]; [12]): 75 mg/kg/day
NOAEL (rat [6]; [12]): 75 mg/kg/day
LEL (rat [7]): 50 mg/kg/day
LOAEL (rat [7]): 50 mg/kg/day
NEL (rat [7]): < 50 mg/kg/day
NOAEL (rat [7]): < 50 mg/kg/day
LEL (rat [8]; [13]): 400 mg/kg/day
LOAEL (rat [8]; [13]): 400 mg/kg/day
NEL (rat [8]; [13]): 200 mg/kg/day
NOAEL (rat [8]; [13]): 200 mg/kg/day
LOAEL (rat [8]; [14]): 100 mg/kg/day
NOAEL (rat [8]; [14]): < 100 mg/kg/day
LEL (rat [8]; [15]): 100 mg/kg/day
NEL (rat [8]; [15]): < 100 mg/kg/day

Source: EPA's ToxRefDB 2
